Reference: ChEMBL document CHEMBL5143690, “Identification of nitrofuranylchalcone tethered benzoxazole-2-amines as potent inhibitors of drug resistant Mycobacterium tuberculosis demonstrating bactericidal efficacy” (Bioorg Med Chem, 2022)
Values after ≈ are worked out from the molar mass of the structure shown.

Experiments:
Assay type in all cases: functional
[1] = system: Mycobacterium tuberculosis; test: Antimycobacterial activity against Streptomycin-resistant Mycobacterium tuberculosis H37Rv ATCC 35820 assessed as inhibition of bacterial growth incubated for 48 hrs by resazurin microtitre assay
[2] = system: Mycobacterium tuberculosis; test: Antimycobacterial activity against ethambutol-resistant Mycobacterium tuberculosis H37Rv ATCC 35837 assessed as inhibition of bacterial growth incubated for 48 hrs by resazurin microtitre assay
[3] = system: Mycobacterium tuberculosis; test: Antimycobacterial activity against rifampicin-resistant Mycobacterium tuberculosis H37Rv ATCC 35838 assessed as inhibition of bacterial growth incubated for 48 hrs by resazurin microtitre assay
[4] = system: Mycobacterium tuberculosis; test: Antimycobacterial activity against isoniazid-resistant Mycobacterium tuberculosis H37Rv ATCC 35822 assessed as inhibition of bacterial growth incubated for 48 hrs by broth microdilution assay

SMILES | MIC [1] [µg/mL] | MIC [2] [µg/mL] | MIC [3] [µg/mL] | MIC [4] [µg/mL]
O=C(/C=C/c1ccc([N+](=O)[O-])o1)c1ccc(Nc2nc3ccccc3o2)cc1 | 0.12 (≈ 0.32 µM) | 0.03 (≈ 0.0799 µM) | 0.03 (≈ 0.0799 µM) | 0.06 (≈ 0.16 µM)
Cc1ccc2oc(Nc3ccc(C(=O)/C=C/c4ccc([N+](=O)[O-])o4)cc3)nc2c1 | 0.06 (≈ 0.154 µM) | 0.06 (≈ 0.154 µM) | 0.03 (≈ 0.077 µM) | 0.12 (≈ 0.308 µM)
O=C(/C=C/c1ccc([N+](=O)[O-])o1)c1ccc(Nc2nc3cc(Cl)ccc3o2)cc1 | 0.06 (≈ 0.146 µM) | 0.03 (≈ 0.0732 µM) | 0.03 (≈ 0.0732 µM) | 0.06 (≈ 0.146 µM)
O=C(/C=C/c1ccc([N+](=O)[O-])o1)c1ccc(Nc2nc3cc([N+](=O)[O-])ccc3o2)cc1 | 0.12 (≈ 0.285 µM) | 0.06 (≈ 0.143 µM) | 0.03 (≈ 0.0714 µM) | 0.25 (≈ 0.595 µM)
O=C(/C=C/c1ccc([N+](=O)[O-])o1)c1cccc(Nc2nc3ccccc3o2)c1 | 0.12 (≈ 0.32 µM) | 0.06 (≈ 0.16 µM) | 0.03 (≈ 0.0799 µM) | 0.25 (≈ 0.666 µM)
CC[C@@H](CO)NCCN[C@@H](CC)CO [ETHAMBUTOL] | 1 (≈ 4.89 µM) | 32 (≈ 157 µM) | 1 (≈ 4.89 µM) | 1 (≈ 4.89 µM)
NNC(=O)c1ccncc1 [ISONIAZID] | 0.03 (≈ 0.219 µM) | 0.03 (≈ 0.219 µM) | 0.03 (≈ 0.219 µM) | > 64
CO[C@H]1/C=C/O[C@@]2(C)Oc3c(C)c(O)c4c(O)c(c(/C=N/N5CCN(C)CC5)c(O)c4c3C2=O)NC(=O)/C(C)=C\C=C\[C@H](C)[C@H](O)[C@@H](C)[C@@H](O)[C@@H](C)[C@H](OC(C)=O)[C@@H]1C [RIFAMPIN] | 0.03 (≈ 0.0365 µM) | 0.03 (≈ 0.0365 µM) | 64 (≈ 77.8 µM) | 0.03 (≈ 0.0365 µM)
CN[C@@H]1[C@H](O[C@H]2[C@H](O[C@H]3[C@H](O)[C@@H](O)[C@H](N=C(N)N)[C@@H](O)[C@@H]3N=C(N)N)O[C@@H](C)[C@]2(O)C=O)O[C@@H](CO)[C@H](O)[C@H]1O [STREPTOMYCIN] | > 64 | 1 (≈ 1.72 µM) | 1 (≈ 1.72 µM) | 1 (≈ 1.72 µM)
